US20190111055A1, “USE OF PHARMACEUTICAL COMPOSITION FOR THE TREATMENT OF SKIN ERYTHEMA IN POIKILODERMAS” (priority 2016, published 2019)

Key:
[1] = tested on: skin lesions of Poikiloderma of Civatte
Source text: FIG. 1 represents the delimited area of the patient's skin to be treated with a composition described in this document, containing an alpha-adrenergic agonist, namely brimonidine gel 0.33%, prior to applying the medicine.
FIG. 2 represents the area of the patient's skin to be treated with the composition mentioned above, immediately after applying the medicine.
Drawing 1 represents the area selected and marked with white pencil for applying a product containing the alpha-adrenergic agonist brimonidine at 0.33% on skin lesions of Poikiloderma of Civatte; this drawing represents the area prior to application. Drawing 2 represents the moment immediately after applying the composition, which was restricted to the small area marked on the skin of the patient.

[2] = clinical studies for acute erythema or diseases such as rosacea; cited from earlier work

For Brc1c(NC2=NCCN2)ccc2nccnc12 [brimonidine], the “color of the skin affected by Poikiloderma of Civatte” value ([1]; brimonidine at 0.33%, topical, marked skin area, 40 minutes after applying) is listed as “effective improvement in the color of the skin”, the “redness of the Poikiloderma of Civatte erythema” value ([1]; topical application of the product) is listed as “visibly improves the redness” and the “adverse events (most common: erythema, redness, burning sensation, contact dermatitis)” value [2] is listed as “less than or equal to 1%”.
